Reference: US11186588B2 (AYUMI PHARMACEUTICAL CORPORATION, priority 2017, dated 2021)

How the values were obtained:
[1] = target: Recombinant BRD4 (44-168) protein (Homo sapiens (Human), UniProt O60885); experiment: BRD4-H4KAc4 binding assay (amplified luminescence proximity homogeneous assay, AlphaScreen); details: 10 uM
Protocol: In order to evaluate BRD4 inhibitory activity of the present compounds, BRD4-H4KAc4 binding assay was carried out by an amplified luminescence proximity homogeneous assay. The specific method is described below.
H4KAc4 peptide (available from Toray Research Center, Inc., sequence SGRGK(Ac)GGK(Ac)GLGK(Ac)GGAK(Ac)RHR-K(Biotin)-NH2) was dissolved in 1×Assay buffer to prepare 1 mM H4KAc4 peptide stock solution.
N-terminal His tag/C-terminal FLAG tag-fused type Recombinant BRD4 (44-168) protein (available from Active Motif, Cat No. 31380) was diluted with 1×Assay buffer to 1,250-fold to prepare 250 nM BRD4 solution.
1% DMSO solution (control) and 2 μL of each compound solution in each concentration were added to each well of AlphaPlate-384 (from PerkinElmer, Cat No. 6008350). Next, 2 μL of 250 nM BRD4 solution was added to each well of AlphaPlate-384. Further, 2 μL of 250 nM H4KAc4 peptide solution was added to each well of AlphaPlate-384. After addition of the 250 nM H4KAc4 peptide solution, the mixture was allowed to stand at room temperature under light shielding for 60 minutes, and 4 μL of AlphaScreen beads were added to each well of AlphaPlate-384. After addition of the AlphaScreen beads, the mixture was allowed to stand at room temperature under light shielding for 60 minutes, emission at 520-620 nm upon excitation at 680 nm was detected by EnVision multilabel counter (from PerkinElmer), and binding of BRD4 and H4KAc4 was detected. Incidentally, the evaluation of each compound was carried out in duplicate (2 well per 1 compound).
(§1) The BRD4 inhibition rate (%) was calculated by the following equation using Microsoft EXCEL 2010. BRD4 inhibition rate (%)=100−{(luminescence intensity average value of each compound added well)−(average value of luminescence intensity of blank well))/(average value of luminescence intensity of control well)−(average value of luminescence intensity of blank well)}×100

NF-κB = NF-κB reporter gene assay (TNF-α stimulated A549/NF-κB-luc cells); format: cell-based; details: Homo sapiens, TNF-α stimulation
Protocol: In order to evaluate NF-κB inhibitory activity of the present compounds, NF-κB reporter gene assay was carried out. The specific method is described below.
Gene recombinant human TNF-α (available from R&D systems, Cat No. 210-TA) was dissolved in D-PBS(−) (available from Wako Pure Chemical Industries, Ltd., Cat No. 293-72601) to prepare 100 μg/mL of TNF-α solution stock solution. 100 μg/mL of the TNF-α solution stock solution was diluted with the culture medium to prepare 10 ng/mL of TNF-α solution.
A549/NF-κB-luc cells (available from Panomics, Cat No. LR0051) were prepared at 375,000 cells/mL in the culture medium. The 375,000 cells/mL A549/NF-κB-luc cell suspension was seeded at 80 μL each on a white 96-well plate (available from Greiner, Cat No. 655073). One hour after seeding the cells, 10 μL of 2% DMSO solution (control) and each compound solution in each concentration were added to each well of the 96-well plate. One hour after the addition of each compound solution, 10 ng/mL of the TNF-α solution (10 μL) was added to each well of the 96-well plate. Three hours after the addition of 10 ng/mL of the TNF-α solution, 100 μL of Steady-Glo reagent (available from Promega, Cat No. E2510) was added to each well of the 96-well plate. After 30 to 90 minutes of the addition of the Steady-Glo reagent, the luminescence intensity of each well was detected by EnVision multilabel counter (available from PerkinElmer).
as §1, with “NF-κB” for “The BRD4”, “NF-κB” for “BRD4”, “well)}×100 In addition, IC50 values were calculated from the calculated NF-κB inhibition rate (%) using curve fitting software XLfit (available from IDBS).” for “well)}×100”

Cc1sc2c(c1C)C(c1ccccc1)=NNc1nnc(C)n1-2 [Example 27, 2,3,9-trimethyl-4-phenyl-6H-thieno[2,3-e][1,2,4]triazolo[3,4-c][1,2,4]triazepine]
inhibition at 10 µM [1]: 101% | IC50 (NF-κB): 3100 nM

Cc1sc2c(c1C)C(c1ccccc1)=NN(Cc1ccccc1)c1nnc(C)n1-2 [Example 29, 6-benzyl-2,3,9-trimethyl-4-phenyl-6H-thieno[2,3-e][1,2,4]triazolo[3,4-c][1,2,4]triazepine]
inhibition at 10 µM [1]: 101% | IC50 (NF-κB): 265 nM

COc1cccc(CN2N=C(c3ccccc3)c3c(sc(C)c3C)-n3c(C)nnc32)c1 [Example 33, 6-(3-methoxybenzyl)-2,3,9-trimethyl-4-phenyl-6H-thieno[2,3-e][1,2,4]triazolo[3,4-c][1,2,4]triazepine]
inhibition at 10 µM [1]: 99.2% | IC50 (NF-κB): 87.2 nM

COc1ccccc1CN1N=C(c2ccc(Cl)cc2)c2c(sc(C)c2C)-n2c(C)nnc21 [Example 34, 4-(4-chlorophenyl)-6-(2-methoxybenzyl)-2,3,9-trimethyl-6H-thieno[2,3-e][1,2,4]triazolo[3,4-c][1,2,4]triazepine]
inhibition at 10 µM [1]: 100% | IC50 (NF-κB): 612 nM

Cc1sc2c(c1C)C(c1ccc(Cl)cc1)=NN(Cc1ccc(Cl)cn1)c1nnc(C)n1-2 [Example 36, 4-(4-chlorophenyl)-6-((5-chloropyridin-2-yl)methyl)-2,3,9-trimethyl-6H-thieno[2,3-e][1,2,4]triazolo[3,4-c][1,2,4]triazepine]
inhibition at 10 µM [1]: 100% | IC50 (NF-κB): 401 nM

Cc1sc2c(c1C)C(c1ccc(Cl)cc1)=NN(Cc1cncc(Cl)c1)c1nnc(C)n1-2 [Example 39, 4-(4-chlorophenyl)-6-((5-chloropyridin-3-yl)methyl)-2,3,9-trimethyl-6H-thieno[2,3-e][1,2,4]triazolo[3,4-c][1,2,4]triazepine]
inhibition at 10 µM [1]: 100% | IC50 (NF-κB): 620 nM

Cc1sc2c(c1C)C(c1ccc(Cl)cc1)=NN(Cc1cc(Cl)ccn1)c1nnc(C)n1-2 [Example 40, 4-(4-chlorophenyl)-6-((4-chloropyridin-2-yl)methyl)-2,3,9-trimethyl-6H-thieno[2,3-e][1,2,4]triazolo[3,4-c][1,2,4]triazepine]
inhibition at 10 µM [1]: 100% | IC50 (NF-κB): 699 nM

Cc1sc2c(c1C)C(c1ccc(Cl)cc1)=NN(Cc1ccnc(F)c1)c1nnc(C)n1-2 [Example 42, 4-(4-chlorophenyl)-6-((2-fluoropyridin-4-yl)methyl)-2,3,9-trimethyl-6H-thieno[2,3-e][1,2,4]triazolo[3,4-c][1,2,4]triazepine]
inhibition at 10 µM [1]: 100% | IC50 (NF-κB): 1150 nM

Cc1sc2c(c1C)C(c1ccc(Cl)cc1)=NN(Cc1cnccc1Cl)c1nnc(C)n1-2 [Example 43, 4-(4-chlorophenyl)-6-((4-chloropyridin-3-yl)methyl)-2,3,9-trimethyl-6H-thieno[2,3-e][1,2,4]triazolo[3,4-c][1,2,4]triazepine]
inhibition at 10 µM [1]: 100% | IC50 (NF-κB): 1830 nM

Cc1sc2c(c1C)C(c1ccc(Cl)cc1)=NN(CCc1c[nH]c3ccccc13)c1nnc(C)n1-2 [Example 44, 6-(2-(1H-indol-3-yl)ethyl)-4-(4-chlorophenyl)-2,3,9-trimethyl-6H-thieno[2,3-e][1,2,4]triazolo[3,4-c][1,2,4]triazepine]
inhibition at 10 µM [1]: 99.3% | IC50 (NF-κB): 9850 nM

Cc1sc2c(c1C)C(c1ccc(Cl)cc1)=NN(Cc1cccs1)c1nnc(C)n1-2 [Example 45, 4-(4-chlorophenyl)-2,3,9-trimethyl-6-(thiophen-2-ylmethyl)-6H-thieno[2,3-e][1,2,4]triazolo[3,4-c][1,2,4]triazepine]
inhibition at 10 µM [1]: 99.9% | IC50 (NF-κB): 429 nM

COc1cccc(CN2N=C(c3ccc(Cl)cc3)c3c(sc(C)c3C)-n3c(C)nnc32)n1 [Example 46, 4-(4-chlorophenyl)-6-((6-methoxypyridin-2-yl)methyl)-2,3,9-trimethyl-6H-thieno[2,3-e][1,2,4]triazolo[3,4-c][1,2,4]triazepine]
inhibition at 10 µM [1]: 100% | IC50 (NF-κB): 683 nM

COc1ccc(CN2N=C(c3ccc(Cl)cc3)c3c(sc(C)c3C)-n3c(C)nnc32)nc1 [Example 47, 4-(4-chlorophenyl)-6-((5-methoxypyridin-2-yl)methyl)-2,3,9-trimethyl-6H-thieno[2,3-e][1,2,4]triazolo[3,4-c][1,2,4]triazepine]
inhibition at 10 µM [1]: 100% | IC50 (NF-κB): 554 nM

COc1ccnc(CN2N=C(c3ccc(Cl)cc3)c3c(sc(C)c3C)-n3c(C)nnc32)c1 [Example 48, 4-(4-chlorophenyl)-6-((4-methoxypyridin-2-yl)methyl)-2,3,9-trimethyl-6H-thieno[2,3-e][1,2,4]triazolo[3,4-c][1,2,4]triazepine]
inhibition at 10 µM [1]: 100% | IC50 (NF-κB): 297 nM

COc1ccc(CN2N=C(c3ccc(Cl)cc3)c3c(sc(C)c3C)-n3c(C)nnc32)cn1 [Example 50, 4-(4-chlorophenyl)-6-((6-methoxypyridin-3-yl)methyl)-2,3,9-trimethyl-6H-thieno[2,3-e][1,2,4]triazolo[3,4-c][1,2,4]triazepine]
inhibition at 10 µM [1]: 100% | IC50 (NF-κB): 355 nM

COc1ccncc1CN1N=C(c2ccc(Cl)cc2)c2c(sc(C)c2C)-n2c(C)nnc21 [Example 51, 4-(4-chlorophenyl)-6-((4-methoxypyridin-3-yl)methyl)-2,3,9-trimethyl-6H-thieno[2,3-e][1,2,4]triazolo[3,4-c][1,2,4]triazepine]
inhibition at 10 µM [1]: 100% | IC50 (NF-κB): 265 nM

Cc1sc2c(c1C)C(c1ccc(Cl)cc1)=NN(Cc1cccc(N)c1)c1nnc(C)n1-2 [Example 52, 3-((4-(4-chlorophenyl)-2,3,9-trimethyl-6H-thieno[2,3-e][1,2,4]triazolo[3,4-c][1,2,4]triazepin-6-yl)methyl)aniline]
inhibition at 10 µM [1]: 100% | IC50 (NF-κB): 5230 nM

Cc1sc2c(c1C)C(c1ccc(Cl)cc1)=NN(Cc1cccc(O)c1)c1nnc(C)n1-2 [Example 53, 3-((4-(4-chlorophenyl)-2,3,9-trimethyl-6H-thieno[2,3-e][1,2,4]triazolo[3,4-c][1,2,4]triazepin-6-yl)methyl)phenol]
inhibition at 10 µM [1]: 100% | IC50 (NF-κB): 2980 nM

Cc1sc2c(c1C)C(c1ccc(Cl)cc1)=NN(Cc1cccc(N(C)C)c1)c1nnc(C)n1-2 [Example 55, 3-((4-(4-chlorophenyl)-2,3,9-trimethyl-6H-thieno[2,3-e][1,2,4]triazolo[3,4-c][1,2,4]triazepin-6-yl)methyl)-N,N-dimethylaniline]
inhibition at 10 µM [1]: 100% | IC50 (NF-κB): 2760 nM

CC(=O)Nc1cc(CN2N=C(c3ccc(Cl)cc3)c3c(sc(C)c3C)-n3c(C)nnc32)ccn1 [Example 56, N-(4-((4-(4-chlorophenyl)-2,3,9-trimethyl-6H-thieno[2,3-e][1,2,4]triazolo[3,4-c][1,2,4]triazepin-6-yl)methyl)pyridin-2-yl)acetamide]
inhibition at 10 µM [1]: 100% | IC50 (NF-κB): 942 nM

Cc1sc2c(c1C)C(c1ccc(Cl)cc1)=NN(Cc1ccnc(N)c1)c1nnc(C)n1-2 [Example 57, 4-((4-(4-chlorophenyl)-2,3,9-trimethyl-6H-thieno[2,3-e][1,2,4]triazolo[3,4-c][1,2,4]triazepin-6-yl)methyl)pyridin-2-amine]
inhibition at 10 µM [1]: 100% | IC50 (NF-κB): 558 nM

COc1ccc(CN2N=C(c3ccc(Cl)cc3)c3ccsc3-n3c(C)nnc32)cc1 [Example 58, 4-(4-chlorophenyl)-6-(4-methoxybenzyl)-9-methyl-6H-thieno[2,3-e][1,2,4]triazolo[3,4-c][1,2,4]triazepine]
inhibition at 10 µM [1]: 100% | IC50 (NF-κB): 728 nM
